# Assay results: patent publication US20220153745A1, “DISUBSTITUTED BENZOTHIENYL-PYRROLOTRIAZINES AND THEIR USE AS FGFR KINASE INHIBITORS” (Bayer Intellectual Property GmbH, priority 2011, published 2022)
# Structures can show the parent of a compound that is named as a salt.
# What was measured:
# mTOR = target: T1, mTOR (Homo sapiens, UniProt P42345); test: mTOR kinase assay (TR-FRET, for comparative purposes); type: biochemical; conditions: for inhibition at 1 µM: read-out: mTOR % inhibition @ 1 μM, mean inhibition at 1 μM test compound, 40 μM ATP; for mTOR % inhibition @ 1 μM: mean inhibition at 1 μM test compound, 40 μM ATP
# T1 construct: human mTOR amino acids from 1360 to 2549; purchased Invitrogen 4753; host or cells: insect cells
# [1] = tested on: Human umbilical vein endothelial cells (HUVEC); test: Inhibition of hFGF-2 mediated HUVEC proliferation; type: cell-based; conditions: 72 h
# T1 sequence (P42345 1360-2549): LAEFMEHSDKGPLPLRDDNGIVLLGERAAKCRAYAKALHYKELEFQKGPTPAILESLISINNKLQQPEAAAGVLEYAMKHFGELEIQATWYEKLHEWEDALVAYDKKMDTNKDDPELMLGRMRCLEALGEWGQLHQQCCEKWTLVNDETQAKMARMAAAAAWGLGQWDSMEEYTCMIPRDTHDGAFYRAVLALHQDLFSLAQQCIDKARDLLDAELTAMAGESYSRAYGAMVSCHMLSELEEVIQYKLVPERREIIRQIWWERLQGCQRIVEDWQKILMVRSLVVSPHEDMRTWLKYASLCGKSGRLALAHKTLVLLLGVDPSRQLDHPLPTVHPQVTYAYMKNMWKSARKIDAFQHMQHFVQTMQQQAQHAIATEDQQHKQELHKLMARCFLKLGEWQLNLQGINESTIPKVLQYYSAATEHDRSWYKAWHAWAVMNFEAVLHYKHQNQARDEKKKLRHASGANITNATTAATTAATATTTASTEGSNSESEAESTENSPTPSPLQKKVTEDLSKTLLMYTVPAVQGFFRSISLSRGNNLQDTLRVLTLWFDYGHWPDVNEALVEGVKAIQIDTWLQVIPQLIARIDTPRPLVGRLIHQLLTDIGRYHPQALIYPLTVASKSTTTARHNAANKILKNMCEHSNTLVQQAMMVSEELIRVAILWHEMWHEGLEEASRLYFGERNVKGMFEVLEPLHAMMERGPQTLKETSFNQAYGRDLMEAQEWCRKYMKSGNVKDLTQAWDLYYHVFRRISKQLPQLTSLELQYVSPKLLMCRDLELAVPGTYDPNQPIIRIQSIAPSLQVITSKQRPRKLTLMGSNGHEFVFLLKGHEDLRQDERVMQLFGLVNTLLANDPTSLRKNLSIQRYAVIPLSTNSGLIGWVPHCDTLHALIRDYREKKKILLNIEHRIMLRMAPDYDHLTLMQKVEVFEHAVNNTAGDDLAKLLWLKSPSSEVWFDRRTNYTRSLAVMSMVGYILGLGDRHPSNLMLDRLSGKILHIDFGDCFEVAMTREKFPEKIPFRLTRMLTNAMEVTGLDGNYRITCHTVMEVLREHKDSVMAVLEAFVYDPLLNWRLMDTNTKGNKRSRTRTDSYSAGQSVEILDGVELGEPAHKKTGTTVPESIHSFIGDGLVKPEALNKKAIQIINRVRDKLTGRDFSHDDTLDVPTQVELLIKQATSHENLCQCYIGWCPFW
Compound,inhibition at 1 µM (mTOR),IC50 [1],mTOR % inhibition @ 1 μM (mTOR)
"COc1cc(C)cc2cc(-c3c(CNCC(C)O)c(CN4CCOCC4)n4ncnc(N)c34)sc12 (racemic) [Example 53, rac-1-({[4-Amino-5-(7-methoxy-5-methyl-1-benzothiophen-2-yl)-7-(morpholin-4-ylmethyl)pyrrolo[2,1-f][1,2,4]triazin-6-yl]methyl}amino)propan-2-ol]",3.3%,3.3 nM,
"COc1cc(C)cc2cc(-c3c(CO)c(CN4CCNC(=O)C4)n4ncnc(N)c34)sc12 [Example 13, 4-{[4-Amino-6-(hydroxymethyl)-5-(7-methoxy-5-methyl-1-benzothiophen-2-yl)pyrrolo[2,1-f][1,2,4]-triazin-7-yl]methyl}piperazin-2-one]",14.9%,17 nM,
"COc1cc(C)cc2cc(-c3c(COCCO)c(CN4CCNC(=O)C4)n4ncnc(N)c34)sc12 [Example 21, 4-({4-Amino-6-[(2-hydroxyethoxy)methyl]-5-(7-methoxy-5-methyl-1-benzothiophen-2-yl)pyrrolo[2,1-f][1,2,4]triazin-7-yl}methyl)piperazin-2-one formiate]",5%,3.7 nM,
"COc1cc(C)cc2cc(-c3c(COC4CCC4)c(CN4CCNCC4)n4ncnc(N)c34)sc12 [Example 26, 6-[(Cyclobutyloxy)methyl]-5-(7-methoxy-5-methyl-1-benzothiophen-2-yl)-7-(piperazin-1-ylmethyl)pyrrolo[2,1-f][1,2,4]triazin-4-amine]",6.8%,56.7 nM,
"COc1cc(C)cc2cc(-c3c(COCC(N)=O)c(CN4CCN(C(C)=O)CC4)n4ncnc(N)c34)sc12 [Example 34, 2-({7-[(4-Acetylpiperazin-1-yl)methyl]-4-amino-5-(7-methoxy-5-methyl-1-benzothiophen-2-yl)pyrrolo[2,1-f][1,2,4]triazin-6-yl}methoxy)acetamide]",25.9%,37.3 nM,
"COc1cc(C)cc2cc(-c3c(CN[C@H]4CCNC4=O)c(CN4CCOCC4)n4ncnc(N)c34)sc12 [Example 51, (3S)-3-({[4-Amino-5-(7-methoxy-5-methyl-1-benzothiophen-2-yl)-7-(morpholin-4-ylmethyl)pyrrolo[2,1-f][1,2,4]triazin-6-yl]methyl}amino)pyrrolidin-2-one]",8.4%,1.2 nM,
"COc1cc(C)cc2cc(-c3c(CN4CCNC(=O)C4)c(CN4CCOCC4)n4ncnc(N)c34)sc12 [Example 52, 4-{[4-Amino-5-(7-methoxy-5-methyl-1-benzothiophen-2-yl)-7-(morpholin-4-ylmethyl)pyrrolo[2,1-f][1,2,4]triazin-6-yl]methyl}piperazin-2-one]",4.2%,4 nM,
"COc1cc(C)cc2cc(-c3c(CNCC(C)(C)O)c(CN4CCOCC4)n4ncnc(N)c34)sc12 [Example 54, 1-({[4-Amino-5-(7-methoxy-5-methyl-1-benzothiophen-2-yl)-7-(morpholin-4-ylmethyl)pyrrolo[2,1-f][1,2,4]triazin-6-yl]methyl}amino)-2-methylpropan-2-ol]",1.7%,2.2 nM,
"COc1cc(C)cc2cc(-c3c(CN[C@@H]4CCNC4=O)c(CN4CCN(C(C)=O)CC4)n4ncnc(N)c34)sc12 [Example 56, (3R)-3-[({7-[(4-Acetylpiperazin-1-yl)methyl]-4-amino-5-(7-methoxy-5-methyl-1-benzothiophen-2-yl)pyrrolo[2,1-f][1,2,4]triazin-6-yl}methyl)amino]pyrrolidin-2-one]",16.1%,18.1 nM,
"COc1cc(C)cc2cc(-c3c(CNCC(C)(C)O)c(CN4CCN(C(C)=O)CC4)n4ncnc(N)c34)sc12 [Example 57, 1-(4-{[4-Amino-6-{[(2-hydroxy-2-methylpropyl)amino]methyl}-5-(7-methoxy-5-methyl-1-benzothiophen-2-yl)pyrrolo[2,1-f][1,2,4]triazin-7-yl]methyl}piperazin-1-yl)ethanone]",2%,3.2 nM,
"COc1cc(C)cc2cc(-c3c(CN4CCNC(=O)C4)c(CN4CCN(C(C)=O)CC4)n4ncnc(N)c34)sc12 [Example 59, 4-({7-[(4-Acetylpiperazin-1-yl)methyl]-4-amino-5-(7-methoxy-5-methyl-1-benzothiophen-2-yl)pyrrolo[2,1-f][1,2,4]triazin-6-yl}methyl)piperazin-2-one]",0.8%,51.1 nM,
"COC(=O)c1c(-c2cc3cc(C)cc(OC)c3s2)c2c(N)ncnn2c1C(=O)N1CCNCC1 [Example 60, Methyl 4-amino-5-(7-methoxy-5-methyl-1-benzothiophen-2-yl)-7-(piperazin-1-ylcarbonyl)pyrrolo[2,1-f][1,2,4]triazine-6-carboxylate bis(formiate)]",11.1%,250 nM,
"COc1cc(C)cc2cc(-c3c(CNC(C)=O)c(CN4CCNC(=O)C4)n4ncnc(N)c34)sc12 [Example 67, N-({4-Amino-5-(7-methoxy-5-methyl-1-benzothiophen-2-yl)-7-[(3-oxopiperazin-1-yl)methyl]-pyrrolo[2,1-f][1,2,4]triazin-6-yl}methyl)acetamide]",8.4%,12.1 nM,
"COc1cc(C)cc2cc(-c3c(CO)c(C#N)n4ncnc(N)c34)sc12 [Example 68, 4-Amino-6-(hydroxymethyl)-5-(7-methoxy-5-methyl-1-benzothiophen-2-yl)pyrrolo[2,1-f][1,2,4]-triazine-7-carbonitrile]",8%,14.4 nM,
"CCOCc1c(-c2cc3cc(C)cc(OC)c3s2)c2c(N)ncnn2c1C#N [Example 70, 4-Amino-6-(ethoxymethyl)-5-(7-methoxy-5-methyl-1-benzothiophen-2-yl)pyrrolo[2,1-f][1,2,4]-triazine-7-carbonitrile]",5.8%,,
"COc1cc(C)cc2cc(-c3c(CN4CCNC(=O)C4)c(C#N)n4ncnc(N)c34)sc12 [Example 71, 4-Amino-5-(7-methoxy-5-methyl-1-benzothiophen-2-yl)-6-[(3-oxopiperazin-1-yl)methyl]pyrrolo[2,1-f][1,2,4]triazine-7-carbonitrile]",0.1%,,
"COc1cc(C)cc2cc(-c3c(CNC(C)=O)c(CNC(C)=O)n4ncnc(N)c34)sc12 [Example 72, N,N′-{[4-Amino-5-(7-methoxy-5-methyl-1-benzothiophen-2-yl)pyrrolo[2,1-f][1,2,4]triazine-6,7-diyl]bis(methylene)}diacetamide]",8.2%,1.6 nM,
"COc1cc(C)cc2cc(-c3c(CO)c(C(C)(C)O)n4ncnc(N)c34)sc12 [Example 73, 2-[4-Amino-6-(hydroxymethyl)-5-(7-methoxy-5-methyl-1-benzothiophen-2-yl)pyrrolo[2,1-f][1,2,4]-triazin-7-yl]propan-2-ol]",18.5%,5.5 nM,
"COc1cc(C)cc2cc(-c3c(CN4CCNC(=O)C4)c(C(C)(C)O)n4ncnc(N)c34)sc12 [Example 74, 4-{[4-Amino-7-(2-hydroxypropan-2-yl)-5-(7-methoxy-5-methyl-1-benzothiophen-2-yl)pyrrolo[2,1-f][1,2,4]triazin-6-yl]methyl}piperazin-2-one]",18.6%,0.2 nM,
"COc1cc(C)cc2cc(-c3c(CNCC(C)(C)O)c(C)n4ncnc(N)c34)sc12 [Example 78, 1-({[4-Amino-5-(7-methoxy-5-methyl-1-benzothiophen-2-yl)-7-methylpyrrolo[2,1-f][1,2,4]triazin-6-yl]methyl}amino)-2-methylpropan-2-ol]",,,5.8%
"COc1cc(C)cc2cc(-c3c(CN4CCNC(=O)C4)c(Cl)n4ncnc(N)c34)sc12 [Example 80, 4-{[4-Amino-7-chloro-5-(7-methoxy-5-methyl-1-benzothiophen-2-yl)pyrrolo[2,1-f][1,2,4]triazin-6-yl]methyl}piperazin-2-one]",3.9%,,
"COc1cc(C)cc2cc(-c3c(CNCC(C)(C)O)c(Cl)n4ncnc(N)c34)sc12 [Example 82, 1-({[4-Amino-7-chloro-5-(7-methoxy-5-methyl-1-benzothiophen-2-yl)pyrrolo[2,1-f][1,2,4]triazin-6-yl]methyl}amino)-2-methylpropan-2-ol]",,,7.1%
"CCOCc1c(-c2cc3cc(C)cc(OC)c3s2)c2c(N)ncnn2c1Cl [Example 83, 7-Chloro-6-(ethoxymethyl)-5-(7-methoxy-5-methyl-1-benzothiophen-2-yl)pyrrolo[2,1-f][1,2,4]-triazin-4-amine]",6.3%,,
"COc1cc(C)cc2cc(-c3c(Cl)c(CN4CCNCC4)n4ncnc(N)c34)sc12 [Example 85, 6-Chloro-5-(7-methoxy-5-methyl-1-benzothiophen-2-yl)-7-(piperazin-1-ylmethyl)pyrrolo[2,1-f]-[1,2,4]triazin-4-amine trihydrochloride]",0.9%,,
"CCOCc1c(-c2cc3cc(C)cc(OC)c3s2)c2c(N)ncnn2c1CN1CCNC1=O [Example 87, 1-{[4-Amino-6-(ethoxymethyl)-5-(7-methoxy-5-methyl-1-benzothiophen-2-yl)pyrrolo[2,1-f][1,2,4]-triazin-7-yl]methyl}imidazolidin-2-one]",12.7%,,
"COCc1c(-c2cc3cccc(OC)c3s2)c2c(N)ncnn2c1CN1CCNC(=O)C1 [Example 88, 4-{[4-Amino-5-(7-methoxy-1-benzothiophen-2-yl)-6-(methoxymethyl)pyrrolo[2,1-f][1,2,4]triazin-7-yl]methyl}piperazin-2-one]",5.3%,,
"CCOCc1c(-c2cc3cc(C)cc(OC)c3s2)c2c(N)ncnn2c1CN[C@H]1CCNC1=O [Example 93, (3S)-3-({[4-Amino-6-(ethoxymethyl)-5-(7-methoxy-5-methyl-1-benzothiophen-2-yl)pyrrolo[2,1-f]-[1,2,4]triazin-7-yl]methyl}amino)pyrrolidin-2-one]",12.5%,,
CCOCc1c(-c2cc3cc(C)cc(OC)c3s2)c2c(N)ncnn2c1CN1CCS(=O)(=O)CC1 [Example 99],5.3%,,
CCOCc1c(-c2cc3cc(C)cc(OC)c3s2)c2c(N)ncnn2c1C(=O)NCCO [Example 108],8.5%,,
